PubChem BioAssay AID328 (DTP/NCI, 2004)
Where “and” joins values, the source holds several entries; their conditions need not be identical. Identical values can stand only once. Inconclusive results and toxic doses are left out. How the source made its calls: active means survival T/C of 150% or more; inactive means T/C below 125% in these data.

Tested on: BDF1 mice, P388 leukemia ip, median survival T/C
Assay: NCI In Vivo Anticancer Drug Screen. Data for tumor model P388 Leukemia (intraperitoneal) in B6D2F1 (BDF1) mice
Settings: endpoint: median survival time, higher = longer survival
In short: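 T/C = treated-group survival ÷ vehicle-control survival; tumour transplanted into mice before dosing.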

[1] = dose: 50.0 mg/kg/injection, schedule: Q01DX009 (ip), vehicle: saline with Tween-80
[2] = dose: 100.0 mg/kg/injection, schedule: Q01DX009 (ip), vehicle: saline with Tween-80
[3] = dose: 200.0 mg/kg/injection, schedule: Q01DX009 (ip), vehicle: saline with Tween-80
[4] = dose: 100.0 mg/kg/injection, schedule: Q04DX003 (ip), vehicle: saline with Tween-80
[5] = dose: 200.0 mg/kg/injection, schedule: Q04DX003 (ip), vehicle: saline with Tween-80
[6] = dose: 400.0 mg/kg/injection, schedule: Q04DX003 (ip), vehicle: saline with Tween-80
[7] = dose: 100.0 mg/kg/injection, schedule: Q04DX003 (ip), vehicle: saline
[8] = dose: 200.0 mg/kg/injection, schedule: Q04DX003 (ip), vehicle: saline
[9] = dose: 6.25 mg/kg/injection, schedule: Q01DX009 (ip), vehicle: Klucel (hydroxypropylcellulose) (HPC)
[10] = dose: 12.5 mg/kg/injection, schedule: Q01DX009 (ip), vehicle: Klucel (hydroxypropylcellulose) (HPC)
[11] = dose: 25.0 mg/kg/injection, schedule: Q01DX009 (ip), vehicle: Klucel (hydroxypropylcellulose) (HPC)
[12] = dose: 50.0 mg/kg/injection, schedule: Q01DX009 (ip), vehicle: Klucel (hydroxypropylcellulose) (HPC)
[13] = dose: 100.0 mg/kg/injection, schedule: Q01DX009 (ip), vehicle: Klucel (hydroxypropylcellulose) (HPC)
[14] = dose: 100.0 mg/kg/injection, schedule: Q04DX003 (ip), vehicle: Klucel (hydroxypropylcellulose) (HPC)
[15] = dose: 200.0 mg/kg/injection, schedule: Q04DX003 (ip), vehicle: Klucel (hydroxypropylcellulose) (HPC)
[16] = dose: 400.0 mg/kg/injection, schedule: Q04DX003 (ip), vehicle: Klucel (hydroxypropylcellulose) (HPC)

Measured: T/C

Cc1noc2nc[nH]c(=O)c12
inactive: dose: 100.0 mg/kg/injection, schedule: Q04DX002 (ip), vehicle: saline with Tween-80 107 % of control | dose: 200.0 mg/kg/injection, schedule: Q04DX002 (ip), vehicle: saline with Tween-80 106 % of control | dose: 400.0 mg/kg/injection, schedule: Q04DX002 (ip), vehicle: saline with Tween-80 94 % of control

C[C@H]1C=C(O)C(=O)[C@@]2(C)C[C@H]3CCC(=O)O[C@H]3C[C@H]12
inactive: dose: 2.5 mg/kg/injection, schedule: Q01DX009 (ip), vehicle: saline + alcohol 105 % of control | dose: 5.0 mg/kg/injection, schedule: Q01DX009 (ip), vehicle: saline + alcohol 107 % of control | dose: 10.0 mg/kg/injection, schedule: Q01DX009 (ip), vehicle: saline + alcohol 91 % of control | dose: 20.0 mg/kg/injection, schedule: Q01DX009 (ip), vehicle: saline + alcohol 100 % of control

CC(C)NC(=O)N(C(=O)C(F)(F)F)C(C)C
inactive: [1] 105 % of control | [2] 94 % of control | [3] 95 % of control

c1ccc(CCSc2ccccc2)cc1
inactive: [4] 113 % of control | [5] 109 % of control | [6] 118 % of control

CCCCNC(C)(C)CSSSCC(C)(C)NCCCC
inactive: dose: 6.25 mg/kg/injection, schedule: Q01DX009 (ip), vehicle: other 110 % of control | dose: 12.5 mg/kg/injection, schedule: Q01DX009 (ip), vehicle: other 86 % of control | dose: 12.5 mg/kg/injection, schedule: Q04DX003 (ip), vehicle: other 98 % of control | dose: 25.0 mg/kg/injection, schedule: Q01DX009 (ip), vehicle: other 114 % of control | dose: 25.0 mg/kg/injection, schedule: Q04DX003 (ip), vehicle: other 117 % of control | dose: 50.0 mg/kg/injection, schedule: Q01DX009 (ip), vehicle: other 110 % of control | dose: 50.0 mg/kg/injection, schedule: Q04DX003 (ip), vehicle: other 117 % of control | dose: 100.0 mg/kg/injection, schedule: Q04DX003 (ip), vehicle: other 112 % of control

Nc1nc2c(ccc3ccccc32)s1
inactive: dose: 25.0 mg/kg/injection, schedule: Q01DX009 (ip), vehicle: saline with Tween-80 117 % of control | [1] 117 % of control | [2] 122 % of control

CCCCCCCCCCC[N+](C)(C)CC[N+](C)(C)CCCCCCCCCCC
inactive: dose: 3.13 mg/kg/injection, schedule: Q01DX009 (ip), vehicle: saline 107 % of control | dose: 6.25 mg/kg/injection, schedule: Q01DX009 (ip), vehicle: saline 110 % of control | dose: 12.5 mg/kg/injection, schedule: Q01DX009 (ip), vehicle: saline 111 % of control

C(=C\c1ccc2ccc(/C=C/c3ccccc3)cc2c1)/c1ccccc1
inactive: [4] 112 % of control | [5] 90 % of control | [6] 105 % of control

O=COC1CC2CC1C1CCCC21 (centres undefined)
inactive: [1] 122 % of control | dose: 50.0 mg/kg/injection, schedule: Q04DX003 (ip), vehicle: saline 100 % of control | [2] 109 % of control | [7] 96 % of control | [8] 100 % of control

Nc1nc(-c2ccccc2N=NN2CCN(N=Nc3ccccc3-c3nc(N)c4ccccc4n3)CC2)nc2ccccc12
inactive: dose: 0.78 mg/kg/injection, schedule: Q01DX009 (ip), vehicle: Klucel (hydroxypropylcellulose) (HPC) 100 % of control | dose: 1.56 mg/kg/injection, schedule: Q01DX009 (ip), vehicle: Klucel (hydroxypropylcellulose) (HPC) 102 % of control | dose: 3.13 mg/kg/injection, schedule: Q01DX009 (ip), vehicle: Klucel (hydroxypropylcellulose) (HPC) 111 % of control | [9] 107 % of control and 110 % of control | [10] 102 % of control | [11] 108 % of control | [12] 105 % of control

Cc1nc2c(N)nn(C)c2nc1C
inactive: [4] 100 % of control | [5] 100 % of control

CN1C(=O)C(C2Sc3ccccc3NC2=O)SC1=S (centres undefined)
inactive: [1] 102 % of control | [2] 104 % of control | [3] 99 % of control

CCCCCCCCCCCCCCCCOc1ccccn1
inactive: [11] 91 % of control | [12] 95 % of control | [13] 95 % of control | [14] 100 % of control | [15] 104 % of control | [16] 122 % of control

O=c1ccc2nc3cc(Cl)ccc3sc-2c1
inactive: [13] 109 % of control | [14] 100 % of control | dose: 200.0 mg/kg/injection, schedule: Q01DX009 (ip), vehicle: Klucel (hydroxypropylcellulose) (HPC) 95 % of control and 105 % of control | [15] 90 % of control | dose: 400.0 mg/kg/injection, schedule: Q01DX009 (ip), vehicle: Klucel (hydroxypropylcellulose) (HPC) 100 % of control | [16] 90 % of control

Nc1ccc2c(c1)OCO2
inactive: dose: 100.0 mg/kg/injection, schedule: Q01DX009 (sc), vehicle: olive oil, sesame oil, peanut oil 104 % of control | dose: 100.0 mg/kg/injection, schedule: Q04DX003 (sc), vehicle: olive oil, sesame oil, peanut oil 91 % of control | dose: 200.0 mg/kg/injection, schedule: Q04DX003 (sc), vehicle: olive oil, sesame oil, peanut oil 95 % of control | dose: 400.0 mg/kg/injection, schedule: Q04DX003 (sc), vehicle: olive oil, sesame oil, peanut oil 116 % of control

CCN(CC)C(=O)Cn1ccc(NC(C)=O)nc1=O
inactive: dose: 100.0 mg/kg/injection, schedule: Q01DX009 (ip), vehicle: saline 104 % of control | [7] 95 % of control | dose: 200.0 mg/kg/injection, schedule: Q01DX009 (ip), vehicle: saline 86 % of control | [8] 100 % of control | dose: 400.0 mg/kg/injection, schedule: Q01DX009 (ip), vehicle: saline 100 % of control | dose: 400.0 mg/kg/injection, schedule: Q04DX003 (ip), vehicle: saline 100 % of control

CC1(C)O[C@]2(C)CC[C@@H]1[C@@H](O)[C@@H]2N1CCCC1
inactive: dose: 50.0 mg/kg/injection, schedule: Q01DX005 (ip), vehicle: saline 95 % of control | dose: 100.0 mg/kg/injection, schedule: Q01DX005 (ip), vehicle: saline 106 % of control | dose: 200.0 mg/kg/injection, schedule: Q01DX005 (ip), vehicle: saline 106 % of control

CCCC1=NNc2n[nH]c(=S)n2N1
inactive: dose: 12.5 mg/kg/injection, schedule: Q04DX003 (ip), vehicle: Klucel (hydroxypropylcellulose) (HPC) 100 % of control | dose: 25.0 mg/kg/injection, schedule: Q04DX003 (ip), vehicle: Klucel (hydroxypropylcellulose) (HPC) 91 % of control | dose: 50.0 mg/kg/injection, schedule: Q04DX003 (ip), vehicle: Klucel (hydroxypropylcellulose) (HPC) 91 % of control

CS(=O)CC(O)(c1ccccc1)c1cccnc1 (centres undefined)
inactive: [1] 103 % of control | [2] 92 % of control | [3] 107 % of control

c1cc2c(cc1CNC1=NCCO1)OCO2
inactive: dose: 100.0 mg/kg/injection, schedule: Q01DX001 (ip), vehicle: saline with Tween-80 100 % of control | dose: 200.0 mg/kg/injection, schedule: Q01DX001 (ip), vehicle: saline with Tween-80 95 % of control | dose: 400.0 mg/kg/injection, schedule: Q01DX001 (ip), vehicle: saline with Tween-80 118 % of control

CC12CCC(C1)C(C)(C)C2NCCCN1C(=O)c2ccc3c4c(ccc(c24)C1=O)C(=O)N(CCCNC1C2(C)CCC(C2)C1(C)C)C3=O (centres undefined)
inactive: [9] 105 % of control | [10] 100 % of control | [11] 115 % of control and 116 % of control
